Data on three compounds can be found in patent publication US10189796B2, “[4-(1,3,3-trimethyl-2-oxo-3,4-dihydro-1H-quinoxalin-7-yl)phenoxy]ethyloxy compound or salt thereof” (SANTEN PHARMACEUTICAL CO., LTD., priority 2015, dated 2019).

Test [1] deals with VEGF-induced retinal elevated vascular permeability model of rabbits. The experiment in a line: Retinal vascular permeability model evaluation test. As to conditions: intravitreal once, 4 weeks before VEGF induction. Type of test: in vivo, rabbit. The procedure:
In order to evaluate the inhibitory effect of the present compounds on VEGF-induced retinal vascular permeability, the inhibitory effect of the present compound on retinal vascular permeability in a VEGF-induced retinal elevated vascular permeability model of rabbits was evaluated. Incidentally, this effect was evaluated by calculating a leaked amount of the fluorescent dye of the base agent administered group (non-induced group), a leaked amount of the fluorescent dye of the base agent administered group (control group) and a leaked amount of the fluorescent dye of the test compound administered group.
To the test compound was added 0.01% Polysorbate 80/0.5% sodium carboxymethyl cellulose/PBS (hereinafter referred to as “base agent A”.), whereby 2% (W/V) or 8% (W/V) of the test compound suspension was prepared. Or else, to the test compound was added PEG400 (hereinafter referred to as “base agent B”.), whereby 6% (W/W) of the test compound solution was prepared.
VEGF solution: humanVEGF165 was dissolved in PBS to prepare 50 μg/mL of VEGF solution.
• 1) A mixed solution (1 mL/kg) of 5% ketamine hydrochloride injection solution and 2% xylazine hydrochloride injection solution with the ratio of 7:1 was intramuscularly administered to rabbits (Dutch male rabbits), and the rabbits were anesthetized. • 2) Tropicamide-phenylephrine hydrochloride ophthalmic solution (trade name: Midlin P) was eye dropped to maintain pupillary mydriasis, and then, the VEGF solution was intravitreally administered. Incidentally, PBS was intravitreally administered to the base agent administration group (non-induced group). • 3) Fluorescein was intravenously administered 2 days after intravitreal administration of VEGF. Two hours after the intravenous administration of fluorescein, an amount of the leaked fluorescent dye in the vitreous body was measured by using a fluorophotometer. (Test Method) • 1) One week before or 4 weeks before VEGF-induction, 50 μL of the test compound suspension (prepared by the base agent A) was intravitreally administered once, or 5 μL of the test compound solution (prepared by the base agent B) was intravitreally administered once. Incidentally, in the base agent administered group (non-induced group) and the base agent administered group (control group), the base agent A was used in place of the test compound suspension, or the base agent B was used in place of the test compound solution. • 2) Inhibition ratio of elevated retinal vascular permeability was calculated according to the following calculation formula. (Calculation Formula) Inhibitory ratio (%) on elevated retinal vascular permeability of the test compound administered group=100×{1−(average value of a leaked fluorescent dye amount in the test compound administered group−average value of a leaked fluorescent dye amount in the base agent administered group (non-induced group))/(average value of a leaked fluorescent dye amount in the base agent administered group (control group)−average value of a leaked fluorescent dye amount of the base agent administered group (non-induced group))}

The next test deals with Recombinant human GR (Homo sapiens (Human), UniProt P04150). The experiment in a line: GR competitive binding assay by fluorescence polarization. As to conditions: 20 μM test compound solution, 10 μL/well; 2 hours; DEX positive control; read-out: GR binding rate (%). As for the experimental part: In order to evaluate a binding activity of the present compound to GR, a GR receptor competitor assay was carried out by a fluorescence polarization method. In the assay, a GR competitive binding assay kit (manufactured by Invitrogen, cat No. P2816) was used for the assay, and a procedure was carried out according to the protocol attached to the kit. Hereinafter, the specific method will be described.
Recombinant human GR, sequence (P04150 whole entry): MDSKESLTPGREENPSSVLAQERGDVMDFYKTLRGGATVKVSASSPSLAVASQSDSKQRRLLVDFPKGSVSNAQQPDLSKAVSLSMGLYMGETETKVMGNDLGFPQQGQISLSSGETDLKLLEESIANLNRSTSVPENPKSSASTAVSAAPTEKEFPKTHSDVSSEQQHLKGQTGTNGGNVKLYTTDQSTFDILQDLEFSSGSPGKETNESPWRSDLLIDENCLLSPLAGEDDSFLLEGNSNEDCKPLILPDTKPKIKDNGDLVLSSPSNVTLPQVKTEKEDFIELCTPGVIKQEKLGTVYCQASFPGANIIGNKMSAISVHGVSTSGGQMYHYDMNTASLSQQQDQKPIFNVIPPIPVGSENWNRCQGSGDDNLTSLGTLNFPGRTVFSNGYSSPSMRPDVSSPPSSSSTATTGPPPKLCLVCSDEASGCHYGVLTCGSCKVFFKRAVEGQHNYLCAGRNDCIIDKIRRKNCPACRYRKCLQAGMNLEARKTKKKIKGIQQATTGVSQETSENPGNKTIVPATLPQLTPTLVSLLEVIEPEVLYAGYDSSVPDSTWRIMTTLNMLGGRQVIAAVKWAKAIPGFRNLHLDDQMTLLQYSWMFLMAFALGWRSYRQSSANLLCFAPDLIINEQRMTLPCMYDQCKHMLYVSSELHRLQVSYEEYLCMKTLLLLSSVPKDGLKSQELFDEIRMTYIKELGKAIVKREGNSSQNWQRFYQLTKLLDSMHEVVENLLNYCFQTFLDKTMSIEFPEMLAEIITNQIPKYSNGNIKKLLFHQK
GR screening buffer: A buffer containing 10 mM of potassium phosphate (pH 7.4), 20 mM of sodium molybdate (Na2MoO4), 0.1 mM of ethylene diamine tetraacetic acid (EDTA), 5 mM of dithiothreitol (DTT), 0.1 mM of stabilizing peptide and 2% of dimethylsulfoxide was prepared.
4×GS1 solution: Fluormone™ GS1, which is a fluorescent glucocorticoid ligand, was diluted with GR screening buffer, whereby a 4 nM solution was prepared.
4×GR solution: Recombinant human GR was diluted with GR screening buffer, whereby a 16 nM solution was prepared.
After a test compound was dissolved in dimethylsulfoxide, the resulting solution was diluted with GR screening buffer, whereby a 20 μM test compound solution was prepared. In addition, DEX was similarly dissolved, whereby a DEX solution with a […] concentration was prepared, and the solution was diluted with GR screening buffer, whereby a 2 mM DEX solution was prepared. DEX was used as positive control.
• 1) The test compound solution was added in an amount of 10 μL into each well of a 384-well plate. • 2) 4×GS1 solution and 4×GR solution were added in an amount of 5 μL into each well, respectively. • 3) GR screening buffer was added in an amount of 10 μL/well into each well in place of the test compound solution, which was made a negative control. • 4) A 2 mM of DEX was added in an amount of 10 μL/well into each well in place of the test compound solution, which was made a positive control. • 5) The plate was incubated in a dark place at room temperature for 2 hours, and fluorescence polarization of each well was measured. (Calculation Equation of GR Binding Ratio)
A GR binding ratio (%) was calculated from the following equation. GR binding ratio (%)=100×{1−(fluorescence polarization of test compound solution−average value of fluorescence polarization of positive control solution)/(average value of fluorescence polarization of negative control solution−average value of fluorescence polarization of positive control solution)}
Background: Polarisation of emitted light reports the rotation of a fluorescent probe.

The test system of test [2] is TNFα production in rat whole blood. The test can be described thus: TNFα production inhibitory action evaluation test (LPS stimulation ex vivo, ELISA). As to conditions: 20 hours, 200 μM test compound solution 10 μL/well, DEX treated group = 100, read-out: TNFα production inhibitory ratio (% DEX). The format is cell-based. As for the experimental part: In order to evaluate an action of the present compound as a GR agonist, a TNFα production inhibitory action in rat whole blood after LPS stimulation ex vivo was investigated. For the measurement of the TNFα production amount, the ELISA method (manufactured by R&D Systems, Cat No. RTA00) was used, and a procedure was carried out according to the protocol attached thereto. Hereinafter, the specific method will be described.
LPS solution: LPS was dissolved in PBS(−) and diluted with RPMI 1640 to prepare an LPS solution with a concentration of 2 μg/mL.
After the test compound was dissolved in dimethylsulfoxide, the solution was diluted with PBS(−) to prepare 200 μM of a test compound solution. In addition, DEX was similarly dissolved to prepare 200 μM of a DEX solution, and a TNFα production inhibitory ratio of DEX was measured, and used for calculation of Efficacy (% DEX).
• 1) Blood was collected from 3 to 5 rats using an injection syringe treated with heparin from the abdominal aorta under isoflurane anesthesia. The rats confirmed death after lething the whole blood. • 2) The blood of 3 to 5 rats pooled in a 96-well round bottom culture plate was seeded at each 180 μL/well. • 3) It was cultured (37° C., 5% CO2, 95% air) for about 1 hour. • 4) The test compound solution was added each 10 μL/well, and cultured for 1 hour. • 5) LPS solution was added each 10 μL/well. • 6) The sample in which 2% dimethylsulfoxide-containing PBS(−) was added with each 10 μL/well in place of each test compound solution, and RPMI 1640 was added with each 10 μL/well in place of the LPS solution was made a negative control. • 7) The sample in which 2% dimethylsulfoxide-containing PBS(−) was added with each 10 μL/well in place of each test compound solution was made a positive control. • 8) After completion of 20 hours cultivation, the supernatant was recovered and the amount of TNFα released in the supernatant was measured by using an ELISA Kit. • 9) The TNFα production inhibitory ratio was calculated according to the following calculation formula. (Calculation of TNFα Production Inhibitory Ratio)
TNFα production inhibitory ratio (%) was calculated according to the following formula. TNFα production inhibitory ratio (%)=100×{1−(TNFα production amount of each test compound solution−average value of TNFα production amount of negative control group)/(average value of TNFα production amount of positive control group−average value of TNFα production amount of negative control group)}(%)
Further, a TNFα production inhibitory ratio (Efficacy (% DEX)) when the DEX treated group was made 100 was calculated. Efficacy (% DEX)=100×{(average value of TNFα production inhibitory ratio of each test compound solution)/(average value of TNFα production inhibitory ratio of DEX treated group)}(%)
For orientation: An ELISA detects its analyte on a solid surface through an enzyme-linked reagent.

For test [3], the system named is IL-6 production in human corneal epithelium cell line (HCE-T). The experiment in a line: IL-6 production inhibitory action evaluation test (LPS stimulation, HTRF). Type of test: cell-based. As to conditions: 4 hours. The procedure:
To evaluate the action of the present compounds as a GR agonist, IL-6 production inhibitory action in human corneal epithelial cell line after LPS stimulation was examined The IL-6 production was measured by using the HTRF method (Cat No. 62IL6PEB manufactured by Cisbio Bioassays, Inc.) according to the attached protocol. The specific method is described below.
LPS solution: After dissolving LPS in PBS(−), the resulting solution was diluted with a culture solution, whereby an LPS solution with a 1 μg/mL concentration was prepared.
After dissolving the test compound in dimethylsulfoxide, the solution was diluted with a 10% FBS-DMEM/Ham's F12 medium, whereby a 100 μM of the test compound solution was prepared. […] In addition, DEX was similarly dissolved, whereby a 100 μM concentration of the DEX solution was prepared, and an IL-6 production inhibitory ratio of DEX was measured, and used for calculation of Efficacy (% DEX).
Used cells: human corneal epithelium cell line (HCE-T) (RIKEN, Institute of Physical and Chemical Research)
The cells continued to subculture according to this method were used for the test. (Test Method and Measurement Method) • 1) The subcultured HCE-T was recovered and the cells were seeded at 2.0×10^4 cells/0.1 mL/well in a 96-well flat bottom culture plate. • 2) After culturing overnight, medium the medium was removed and each 80 μL/well of 10%
FBS-DMEM/Ham's F12 medium was added. • 3) Test compound solution was added with each 10 μL/well. • 4) LPS solution was added with each 10 μL/well. • 5) The sample to which 1% dimethylsulfoxide-containing 10% FBS-DMEM/Ham's F12 medium was added with each 10 μL/well in place of each test compound solution, and 10% FBS-DMEM/Ham's F12 medium was added in place of the LPS solution was made a negative control. • 6) The sample in which 1% dimethylsulfoxide-containing 10% FBS-DMEM/Ham's F12 medium was added with each 10 μL/well in place of each test compound solution was made a positive control. • 7) After completion of 4 hours cultivation, the supernatant was recovered and the amount of IL-6 released in the supernatant was measured by using an HTRF human IL-6 Kit. • 8) The IL-6 production inhibitory ratio was calculated according to the following calculation formula. (Calculation of IL-6 Production Inhibitory Ratio)
The IL-6 production inhibitory ratio (%) was calculated by the following formula. IL-6 production inhibitory ratio (%)=100×{1−(IL-6 produced amount of each test compound solution−average value of IL-6 produced amount of negative control group)/(average value of IL-6 produced amount of positive control group−average value of IL-6 produced amount of negative control group)}(%)
Further, the IL-6 production inhibitory ratio (Efficacy (% DEX)) when the DEX treated group was made 100 was calculated. Efficacy (% DEX)=100×{(average value of IL-6 production inhibitory ratio of each test compound solution)/(average value of IL-6 production inhibitory ratio of DEX treated group)}(%)
In addition, IC50 was calculated according to a conventional method. IDBS XLfit4 was used for the calculation.

Where only a bound is given, the exact number is not on record here.

Take `COc1cc(OC[C@H](C)OC(=O)C2CCCN2)ccc1-c1ccc2c(c1COc1cc(F)ccc1C)N(C)C(=O)C(C)(C)N2.Cl` (stereo partly drawn) [Compound 11-2, 8-(5-Fluoro-2-methylphenoxymethyl)-7-[4-[(2S)-[(2S)-pyrrolidylcarbonyloxy]-propyl]oxy-2-methoxyphenyl]-1,3,3-trimethyl-3,4-dihydro-1H-quinoxalin-2-one hydrochloride]: in test [1] (2% 50 μL/base agent A), the “Inhibitory ratio (%) on elevated vascular permeability” value stood at 92%.

Broadly, the IC50 is the midpoint of a concentration-inhibition curve. The low end stands for greater potency, the high end for weaker potency. In the case of `CC[C@@H](O)COc1ccc(-c2ccc3c(c2COc2cc(F)ccc2C)N(C)C(=O)C(C)(C)N3)c(OC)c1` [Compound 1-4, (R)-8-(5-fluoro-2-methylphenoxymethyl)-7-[4-(2-hydroxybutyl)oxy-2-methoxyphenyl]-1,3,3-trimethyl-3,4-dihydro-1H-quinoxalin-2-one], on Recombinant human GR, the inhibition at 10 µM was over 99%. The Emax was 94% in test [2] and 92% in test [3] (100 μM test compound solution 10 μL/well, DEX treated group = 100, read-out: IL-6 production inhibitory ratio (% DEX)). In test [3] (IL-6 production inhibition), half-maximal inhibition (IC50) required 34 nM.

Regarding `COc1cc(OC[C@H](CC#N)OP(=O)(O)O)ccc1-c1ccc2c(c1COc1cc(F)ccc1C)N(C)C(=O)C(C)(C)N2` [Compound 14-3, (S)-7-[4-(3-cyano-2-phosphonohydroxypropyl)oxy-2-methoxyphenyl]-8-(5-fluoro-2-methylphenoxymethyl)-1,3,3-trimethyl-3,4-dihydro-1H-quinoxalin-2-one], the “Inhibitory ratio (%) on elevated vascular permeability” value in test [1] (8% 50 μL/base agent A) is 89%.
